Measurements: patent US20240158384A1, “CB2 RECEPTOR AGONISTS” (The Board of Trustees of the Leland Stanford Junior …, priority 2020, published 2024)
“Also recorded” adds a separate entry of the source.

Columns and labels:
human CB2R [1] = target: T1, human CB2R (Homo sapiens, UniProt P34972); assay: PathHunter β-Arrestin assay, beta-arrestin recruitment; format: cell-based; details: for Activation of beta-arrestin pathway (in words): hCB2, CP-55940 as control
Procedure: The assay was performed using the PathHunter β-Arrestin human CB2 cell line (catalog no. 93-0706C2) and using the PathHunter® β-Arrestin Assay for GPCR Cell Lines (source: DiscoveRx, Fremont, CA, USA), according to the manufacturer's protocol (https://www.discoverx.com/tools-resources/document-resource-library/documents/user-manual-pathhunter-% CE % B2-arrestin-assay-for-gpcr-c). Briefly, cells were seeded at a density of 10,000 cells per well in a 96-well plate and incubated overnight (16-18 h) in a humidified atmosphere at 37° C. and 5% C02. Agonist prepared in PBS was added and the assay plate incubated for 3 h in a humidified atmosphere at 37° C. and 5% C02. Working detection solution was added and the plate was incubated for 1 h in the dark at room temperature. Chemiluminescence was measured on an CLARIOstar plate reader (BMG LABTECH Inc., Cary, NC, USA).

human CB2R [2] = target: T1, human CB2R; assay: cAMP Hunter eXpress GPCR assay, human CB2: inhibition of forskolin-stimulated cAMP in CHO cells; format: cell-based; design: host or cells: CHO cells
Procedure: Briefly, cAMP Hunter eXpress Cells were seeded 18-24 h prior to the in a 96-well tissue culture treated assay plate and incubated in 5% CO2 at 37° C. in a humidified incubator. After removal of cell media, agonist compound and forskolin prepared in cell assay buffer was added and incubated at 37° C. The CB1 cAMP assay was stimulated with 20 μM final concentration of forskolin with 40 minutes incubation time. The CB2 cAMP assay was stimulated with 25 μM final concentration of forskolin with 35 minutes incubation time. The assay was stopped by incubation with antibody and working solution for 1 h at room temperature. After over 3 h incubation at room temperature in the dark with enzyme acceptor solution, chemiluminescence was measured on a CLARIOstar plate reader (BMG LABTECH Inc., Cary, NC, USA).

[3] = tested on: Male C57BL/6J mice brain tissue; assay: Brain cytokine gene expression (TaqMan qPCR); format: in vivo, mouse; details: 0.1 and 0.3 mg/kg or 1, 2, and 3 mg/kg
Procedure: Male C57BL/6J mice, 6-8 weeks old were dosed on Day 1,2,3,4,5, and 10, or 11 with vehicle or CBS-159 at 0.1 and 0.3 mg/kg or 1, 2, and 3 mg/kg. Mice were terminated on Day 10 or 11, 3.5 hours after dosing vehicle or CBS-159. Total RNA was isolated from brain tissue dissections using the RNeasy Lipid Tissue Mini Kit (Qiagen) (see Evans et al. Neurobiol. Dis. 2020, 146:105089). One microgram of total RNA was transcribed into cDNA (Superscript III, Invitrogen). PCR was performed in triplicate using TaqMan gene expression master mix (Applied Bio-systems) and validated TaqMan gene expression assays, Tnfa (Mm00443258_m1), IL1β (Mm00434228_m1), IL6 (Mm00446190_m1),), IL18 (Mm00434226_m1), and glyceraldehyde-3-phosphate dehydrogenase (Gapdh; Mm99999915_g1). Amplification was performed using a StepOnePlus system (Applied Biosystems). Fold changes of expression relative to control were determined after normalization to Gapdh. Relative quantification and old change were calculated by the comparative CT method (Schmittgen and Livak, Nat. Protoc. 2008, 3(6):1101-1108).

Male C57Bl6J mice = assay: Spontaneous locomotor activity in activity chamber; format: in vivo, mouse; details: mouse, in vivo, ip
[4] = tested on: mice dosed with LPS and ATP; assay: LPS model of systemic inflammation, Luminex cytokines in plasma and brain homogenate; format: in vivo, mouse; details: 0.5 mg/kg ip daily for 10 days, LPS 100 ug/kg ip, ATP 50 mg/kg ip
Procedure: Mice were dosed with Compound 24 (0.5 mg/kg ip) or vehicle daily for 10 days. Lipopolysaccharide (LPS) (100 ug/kg ip) was given 1 hour after 10th dose on final day. ATP (50 mg/kg ip) was given 2 hours after LPS and then mice were sacrificed 30 minutes after ATP (2.5 hours after LPS). Multiplex tissue cytokines were analyzed in plasma and brain homogenate from all brain regions dissected above using a Luminex 38-plex mouse cytokine assay as previously described for aged versus young mice (Evans et al. Neurobiol Aging 2021; 106:241-56). The Luminex assay was performed according to the manufacturer's instructions. Briefly, tissue samples were homogenized in RIPA buffer containing proteinase inhibitor by pulling tissue through a 23 g needle (15×) and then sonicating for 3×3 second pulses. Homogenate was spun at 14,000 g for 10 minutes, and protein concentrations were determined by the Pierce BCA assay. Samples were diluted to a common concentration of 6 μg/μL. Plasma samples were diluted 1:3. Plasma and brain homogenate samples were run in duplicate on a 96 well plate alongside standard curve and quality control calibration samples.

heroin-addicted mice = assay: Naloxone-precipitated withdrawal model; format: in vivo, mouse; details: 3 mg/kg i.p., jumping 1 minute after naloxone 50 mg/kg
Procedure: The naloxone-precipitated withdrawal model uses an opioid receptor antagonist, naloxone, to trigger highly aversive withdrawal symptoms (e.g., jumping, burrowing, “wet-dog” shakes, hyperreactivity) in heroin-addicted mice. Signs such as jumping can be quantified after administration of naloxone (“naloxone precipitated withdrawal”). […] On Day 7, 60 minutes after a final drug and heroin dose (40 mg/kg), naloxone was administered (50 mg/kg), and jump count measured for 1-15 minutes.

Heroin SA-trained rats = assay: Heroin self-administration model; format: in vivo, rat; details: treated daily during 21 days of abstinence, 3 mg/kg i.p., vs vehicle
Procedure: In the heroin SA model, rats were surgically implanted with a catheter that connects to their heart. […] They learned to press an active lever to get an infusion of heroin through their implanted tube. […] Heroin SA-trained rats underwent 21 days of abstinence after training. […] Heroin-seeking behaviors were assessed before and after the abstinence period.

[5] = cAMP assay, CP-55940 as full agonist control

T1 sequence (P34972 whole entry): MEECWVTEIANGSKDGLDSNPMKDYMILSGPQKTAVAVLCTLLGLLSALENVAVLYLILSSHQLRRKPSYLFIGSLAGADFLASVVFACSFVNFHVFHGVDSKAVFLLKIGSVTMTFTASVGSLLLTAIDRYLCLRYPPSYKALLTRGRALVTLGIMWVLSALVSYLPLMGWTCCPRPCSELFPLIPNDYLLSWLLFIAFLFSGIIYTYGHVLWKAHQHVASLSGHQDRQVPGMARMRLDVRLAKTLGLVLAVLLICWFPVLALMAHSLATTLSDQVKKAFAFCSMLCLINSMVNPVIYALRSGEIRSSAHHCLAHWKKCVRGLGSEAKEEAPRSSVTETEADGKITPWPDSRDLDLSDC

`CN1CCN(c2nccc3c2nc(-c2ccccc2Cl)n3C2CCOCC2)CC1` [Compound 1, 2-(2-chlorophenyl)-4-(4-methylpiperazin-1-yl)-1-(tetrahydro-2H-pyran-4-yl)-1H-imidazo[4,5-c]pyridine] gave a melting point of 231 to 235 °C.
Molecule `Cc1cc2c(nc(-c3ccccc3Cl)n2C2CCOCC2)c(N2CCN(C)CC2)n1` [Compound 2, 2-(2-chlorophenyl)-6-methyl-4-(4-methylpiperazin-1-yl)-1-(tetrahydro-2H-pyran-4-yl)-1H-imidazo[4,5-c]pyridine] has a melting point of 248 to 252 °C.
`CC(C)(C)c1cc(NC(=O)N2CCCN2c2ccc(C(F)(F)F)cn2)on1` [Compound 3, N-(3-(tert-butyl)isoxazol-5-yl)-2-(5-(trifluoromethyl)pyridin-2-yl)pyrazolidine-1-carboxamide] showed a melting point of 184 to 188 °C.
With `CC(C)(C)c1cc(NC(=O)N2CCCN2c2ccc(C(F)(F)F)cc2)on1` [Compound 11, N-(3-(tert-butyl)isoxazol-5-yl)-2-(4-(trifluoromethyl)phenyl)pyrazolidine-1-carboxamide] the EC50 (human CB2R [1]) was > 1 µM, the “Activation of beta-arrestin pathway (in words)” value (“Activation” for short) (human CB2R [1]) was “weakly/partially activates the beta-arrestin pathway” and the Emax (human CB2R [1]; read-out: B-arrestin Maximum Activation) was 35.5%. The melting point was 211 to 215 °C, the Emax (human CB2R [2]; CHO, read-out: CB2 Maximum Activation) was 114% and the EC50 (human CB2R [2]; Table 3; cAMP assay, 25 μM forskolin, 35 minutes; read-out: CB2 EC50) was 0.0752 µM. The “CB2 agonist character (in words)” value (human CB2R [2]; [5]) was “full agonist” and the “Selectivity for CB2 over CB1 (in words)” value (human CB2R [2]; cAMP assays hCB1 vs hCB2) was “selective for CB2 over CB1”.
In the case of `O=C(Nc1cc(C2CC2)no1)N1CCCN1c1ccc(C(F)(F)F)cc1` [Compound 16, N-(3-cyclopropylisoxazol-5-yl)-2-(4-(trifluoromethyl)phenyl)pyrazolidine-1-carboxamide], the “Activation” value (human CB2R [1]) is reported as “almost no beta-arrestin activity”, the “CB2 agonist character (in words)” value (human CB2R [2]; [5]) is reported as “partial agonist of CB2” and the “Selectivity for CB2 over CB1 (in words)” value (human CB2R [2]; cAMP assays hCB1 vs hCB2) is reported as “selective for CB2 over CB1”.
In the case of `CC(C)(C)c1cc(NC(=O)N2CCCN2c2cc(F)cc(F)c2)on1` [Compound 19, N-(3-(tert-butyl)isoxazol-5-yl)-2-(3,5-difluorophenyl)pyrazolidine-1-carboxamide], the melting point is reported as 181 to 185 °C.
For `CC(C)(C)c1cc(NC(=O)N2CCCN2c2ccc(F)cc2)on1` [Compound 21, N-(3-(tert-butyl)isoxazol-5-yl)-2-(4-fluorophenyl)pyrazolidine-1-carboxamide], the melting point was 190 to 194 °C.
In the case of `CC(C)(CO)c1cc(NC(=O)N2CCCN2c2ccc(C(F)(F)F)cn2)on1` [Compound 24, N-(3-(1-hydroxy-2-methylpropan-2-yl)isoxazol-5-yl)-2-(5-(trifluoromethyl)pyridin-2-yl)pyrazolidine-1-carboxamide], the “Activation” value (human CB2R [1]) is reported as “weak beta-arrestin activity”, the “Anti-inflammatory function in the brain” value [3] is reported as “displays anti-inflammatory function in the brain” and the “Distance moved / spontaneous locomotor activity” value (Male C57Bl6J mice) is reported as “does not affect spontaneous locomotor activity in mice”. The “CB2 agonist character (in words)” value (human CB2R [2]; [5]) was “potent agonists of CB2”, the “Selectivity for CB2 over CB1 (in words)” value (human CB2R [2]; cAMP assays hCB1 vs hCB2) was “selective for CB2 over CB1” and the “Anti-inflammatory function in LPS model of systemic inflammation” value [4] was “has anti-inflammatory activity; also recorded: displays anti-inflammatory function in a LPS model of systemic inflammation”.
Work on `CC(C)(C)c1cc(NC(=O)N2CCCC2c2ccc(C(F)(F)F)cc2)no1` (stereo not drawn) [Compound 26, N-(5-(tert-butyl)isoxazol-3-yl)-2-(4-(trifluoromethyl)phenyl)pyrrolidine-1-carboxamide] yielded a melting point of 175 to 179 °C.
Molecule `CC(C)(C)c1cc(NC(=O)N2CCC(=O)N2c2ccc(C(F)(F)F)cc2)on1` [Compound 29, N-(3-(tert-butyl)isoxazol-5-yl)-3-oxo-2-(4-(trifluoromethyl)phenyl)pyrazolidine-1-carboxamide] has a melting point of 186 to 190 °C.
In the case of `CC(C)(C)c1cc(NC(=O)N2CCCN2)on1` [Compound 31, N-(3-(tert-butyl)isoxazol-5-yl)pyrazolidine-1-carboxamide], the melting point is reported as 175 to 179 °C.
With `Cc1nc(N2CCN(C)CC2)c2nc(-c3ccccc3Cl)n(C3CCOCC3)c2n1` [LY2828360, reference compound] the “Negative effects of heroin withdrawal (jumping behavior after naloxone)” value (heroin-addicted mice) was “reduce the negative effects of heroin withdrawal”, the “Activation” value (human CB2R [1]) was “weakly/partially activates the beta-arrestin pathway” and the Emax (human CB2R [1]; read-out: CB2 Maximum Activation) was 51.7%. The Abstinence-induced heroin seeking (Heroin SA-trained rats) was “less abstinence-induced heroin seeking than the vehicle-treated rats” and the Emax (human CB2R [2]; CHO; read-out: CB2 Maximum Activation) was 52.6%.
